“Also recorded” adds a separate entry of the source.
Experiments:
MCF-7 xenograft = assay: In vivo antitumour effect on MCF-7 xenograft; design: species or system immunosuppressed CBA/Ca mice; conditions: for Influence on the rate of tumour growth: first study, conjugates 150 μg in every 3rd day, P-GFLG-OH daily s.c. corresponding to 50 μg
Procedure: (§1) The immunosuppression of mice was carried out by using the method of Steel et al. (1978).
(§2) CBA/Ca female mice of about 6 weeks old were thymectomized and then, after one week, they were irradiated with 60Co (whole body irradiation; the lethal dose is 9.5 Gray). Within 24 hours 3 to 5×10^5 myelocytes were injected to the animals. Beneath the skin of the immunosuppressed mice 2×10^7 tumour cells or, in the case of later passages, about 2 mm^3 of tumour cells or in the case of later, additional passages about 2 mm^3 of tumour pieces were implanted. […] The treatment with steroid hormone was stopped by at least one week before beginning the investigation.
In the case of MCF-7 tumours (xenografts) the examinations were carried out with passages being in the phase of the 37th and 38th, respectively, transplantations.
In the case of mice bearing MCF-7 xenograft, the treatment was begun in the 4th week following xeno-transplantation.
(§3) Recent investigations have begun on 28 animals bearing MCF-7 xenograft .and on 28 animals bearing MDA-MB-231 xenograft. On animals bearing MCF-7 tumour the treatment was commenced in the 5th week following xeno-transplantation; the tumour volume was 205 to 225 mm^3. On animals bearing MDA-MB-231 tumour, the treatment was started in the 4th week after xeno-transplantation with a tumour volume of 140 to 150 mm^3. […] The control groups were daily treated with physiological saline s.c. (Each treated group consisted of 7 animals.)

[1] = tested on: MDA-MB-231 human mammary carcinoma cell line; assay: Inhibition of colony formation (dose-survival), Example 18; format: cell-based; conditions: 50 μM
Excerpt: (§4) Human cell lines used in in vitro experiments. MCF-7 human mammary tumour cell line was stabilized in 1973 by Soule et al. from the pleural fluid of mammary carcinoma patients. The cells grow in monolayer and are epithelial in their character. MDA-MB-231 human mammary carcinoma cell line was isolated and stabilized in 1974 by Cailleau et al. similarly from pleural fluid. These cells also grow in monolayer. PC3 human prostate carcinoma cell line was stabilized 20 in 1979 in cell culture by Kaighn et al.; the cells are of simple epithelium type and form compact colonies in clonogenic assays. Ishikawa cell line originated from adenocarcinoma of human endometrium [Nishida et al.: Obstet. Gynecol. Jpn, 37, 25 1103-1111 (1985)], has epithelial character and contains steroid as well as GnRH receptors. Human tumour cell lines are maintained in plastic flasks (Greiner) in Dulbecco-6modified Eagle-MEM (DMEM GIBCO) nutritive medium. The medium used herein contained 10% of fetal calf serum (FCS).
(§5) In the case of cytostatics the cell-damaging effect is not cell-specific. […] One part of the arrested cells again go into the cycle, the other part may perish (apoptosis). […] The investigations were carried out on MCF-7 and MDA-MB-231 human mammary carcinoma cell lines, PC3 human prostate 15 carcinoma cell line and Ishikawa human endometrium carcinoma cell line. Threehundred cells were set into Petri dishes of 3.5 cm in diameter each. The treatment was carried out once, 24 hours following the explantation, then the colonies formed were counted after 9 to 12 days.

[2] = tested on: PC3 human prostate carcinoma cell line; assay: as above; format: cell-based; conditions: for Inhibition of colony formation: 30 to 50 μM
Excerpt: as §4, §5

[3] = tested on: MCF-7 human mammary carcinoma cell line; assay: as above; format: cell-based; conditions: 50 μM
Excerpt: as §4, §5

[4] = tested on: Ishikawa human endometrium carcinoma cell line; assay: as above; format: cell-based; conditions: for Inhibition of colony formation: 30 to 50 μM
Excerpt: as §4, §5

[5] = Castration effect: uterus weight of xenograft-bearing animals; format: in vivo, mice
[6] = tested on: MDA-MB-231 human mammary carcinoma cells; assay: In vitro inhibition of cell proliferation (cell count), Example 19; format: cell-based; conditions: 30 μM of active substance, conjugate, treated once, cell count on 7th day
Procedure: (§6) The procedure of treatment was as follows. After trypsinization the cells, 400,000 cells of MCF-7, MDA-MB-231 human mammary carcinoma, PC3 human prostate carcinoma or Ishikawa human endometrium tumour each were passed into Petri dishes of 10 cm in diameter. Starting from the day following transfer, the cells were treated with the substances to be tested in solution prepared with the nutrient medium during the exponential growth phase. The cultures were treated with 1 to 50 μM (calculated for the total volume of the culture) of MI-1544 GnRH antagonist, MI-1892 chicken GnRH antagonist or SJ-1004 GnRH […] on the 7th day.

[7] = tested on: MCF-7 human mammary carcinoma cells; assay: as above; format: cell-based; conditions: 30 μM of active substance, conjugate, treated once, cell count on 7th day
Procedure: as §6

MDA-MB-231 xenograft = assay: In vivo antitumour effect on MDA-MB-231 xenograft; design: species or system immunosuppressed CBA/Ca mice; conditions: for Animals from 7 treated that became tumour-free: 6th week of treatment, 100 μg daily s.c.; for Tumour-free animals: end of the 6th week, first series
Procedure: as §1, §2, §3
A more recent study was started on 28 animals bearing. MDA-MB-231 xenograft. The treatment was begun in the 4th or 5th week following xenotransplantation. The tumour volume was 0.165 to 0.194 cm3. […] (For treatment of the control group, see the preceding Examples). Each group consisted of 7 animals.

[8] = tested on: PC3 human prostate carcinoma cells; assay: In vitro inhibition of cell proliferation (cell count), Example 19; format: cell-based; conditions: 30 μM of active substance, conjugate, treated once
Procedure: The procedure of treatment was as follows. After trypsinization the cells, 400,000 cells of MCF-7, MDA-MB-231 human mammary carcinoma, PC3 human prostate carcinoma or Ishikawa human endometrium tumour each were passed into Petri dishes of 10 cm in diameter. Starting from the day following transfer, the cells were treated with the substances to be tested in solution prepared with the nutrient medium during the exponential growth phase. […]

[9] = tested on: MCF-7 human mammary carcinoma cell line; assay: Inhibition of colony formation (dose-survival), Example 48; format: cell-based; conditions: 10 μM
Excerpt: MCF-7 human mammary carcinoma cell line was stabilized in 1973 by Soule et al. from the pleural fluid of a patient suffering from mammary carcinoma. MDA-MB-231 human mammary carcinoma cell line was isolated and stabilized by Cailleau et al. in 1974 similarly from pleural fluid. Both cell lines grow in monolayer. […] MCF-7 cell line is estradiol receptor (ER)-positive containing proteins specifically binding GnRH. Thus, it represents, a useful model system for investigating the direct effect of GnRH mediated by the GnRH receptor. Being ER-negative and GnRH receptor-positive, MDA-MB-231 cell line is similarly suitable to study the direct effect of GnRH. PC3 human prostate carcinoma cell line was stabilized in cell culture by Kaighn et al. in 1979. The cells are of epithelial type and form compact colonies in clonogenic assays. The Ishikawa cell line originates from human endometrial adenocarcinoma [M. Nishida et al.: Acta Obstet. Gynecol. Jpn. 37, 1103-1111 (1985)], it is epithelial in its character and contains steroid-as well as GnRH receptors. The examination gives accurate information about the cell-damaging effect of the substance tested as a function of varying doses. The treatment was carried out once; the colonies formed from the surviving cells were counted after 8-12 days. […] A part of the arrested cells again entered the cycle, an other part of them might be destroyed (apoptosis). […] The treatment was once carried out 24 hours after setting, then the colonies formed were counted after 8-12 days. The cells were treated once after 24 hours with 1-50 μM of various GnRH analogues of Examples above or with 1-50 μM of GnRH-III, respectively. The percentages of inhibition obtained on MCF-7, MDA-MB-231, PC3 and Ishikawa cells, respectively, together with the dose of the active agent used are shown in Table VIII.

[10] = tested on: Ishikawa human endometrium tumour cells; conditions: 30 μM of active substance, conjugate, treated once
Excerpt: The procedure of treatment was as follows. After trypsinization the cells, 400,000 cells of MCF-7, MDA-MB-231 human mammary carcinoma, PC3 human prostate carcinoma or Ishikawa human endometrium tumour each were passed into Petri dishes of 10 cm in diameter. […]

B-lymphocytes = assay: Humoral immune response (antibody production of B-lymphocytes); format: in vivo, mice; conditions: dose not stated
MXT mouse mammary tumour = assay: In vivo antitumour effect on MXT mouse mammary tumour; design: species or system CBA/Ca mice; conditions: 75 μg/day/animal s.c.; day 17
Procedure: The MXT mouse mammary carcinoma contains ER and PgR proteins; furthermore, it contains also GnRH receptors; therefore, this in vivo tumor model is suitable for studying both the direct and indirect effects. The treatment of mice bearing MXT mammary tumour was commenced on the day following transplantation. […] The animals were daily treated in s.c. route starting from the day following transplantation of MXT mouse mammary tumour. […] MI-1544: 75 μg/day/animal; MI-1892: 75 μg/day/animal.

T-lymphocytes = assay: Cellular immune response (rosette formation against BRBC antigen); format: in vivo, mice; conditions: dose not stated
Excerpt: The immunosuppressive side effect of cytostatics used in tumour therapy is commonly known. This effect can be compensated to a certain grade by various immunostimulants (endotoxin, levamisole). Polypeptides with much […] molecular weights (about 40,000 to 80,000) are also capable of protecting against immunosuppressive effect [Gal et al.: J. Biol. Resp. Modif. 5, 148-159 (1986)). The molecular weight of the novel polyanionic P-GFLG-OH macromolecule tested by us is about 10,000, that of MI-1892 is about 2000, i.e. relatively low; therefore, their immunostimulatory activity was unexpected.

ovulation of female rats = assay: Ovulation / cycle of female rats during treatment for three cycles; format: in vivo, rat; conditions: high dose of the coupled GnRH-III; three cycles observed
Excerpt: In 1993, researchers isolated and synthesized the Lamprey-III-GnRH decapeptide from lamprey (Petromyzon marinus) (p[…]NH2).
On comparison to healthy individuals, the functioning of the protective mechanism (immunostatus) of patients suffering from tumour is more unfavourable. Since the protective (immune) mechanism is enhanced by the compound, its tumour-inhibiting action can more strongly become valid. […] This effect may particularly be preferred on young patients suffering from mammary tumour, where a castration would cause psychic disturbances. In a way different from other conjugates, P-GFLG-GnRH-III gradually induces an inhibition of continually increasing grade during the long-lasting treatment for 7 weeks; and at the end of treatment, tumour-free animals are observed whereas in the case of other conjugates the degree of inhibition increases only up to the fifth week of treatment, then a stagnation in the grade of inhibition can be observed.

[11] = animals bearing MCF-7 xenografts, treatment for four weeks
[12] = animals bearing MDA-MB-231 xenografts, treatment for twelve weeks

Substance: Ac-D-Trp1,3,D-Cpa2,{D-Lys[n-poly-(N-vinylpyrrolidone-co-maleic acid)-Gly-Phe-Leu-Gly]}6. D-Ala10-GnRH [P-GFLG-1544]
- Inhibition % (MCF-7 xenograft; 1 × 50 μg, week 2): 30%
- Inhibition % (MCF-7 xenograft; 1 × 50 μg, week 6): 49%
- Tumour volume as control (%) (MCF-7 xenograft; 1 × 50 μg, week 6): 51%
- Influence on the rate of tumour growth (MCF-7 xenograft): not influenced
- Tumour-free animals (MCF-7 xenograft; repeated study, 6th week): a tumour-free animal was found
- % Inhibition of colony formation [1]: 100%
- % Inhibition of colony formation ([2]; 10 μM): 100%
- % Inhibition of colony formation ([2]; 50 μM): 100%
- Inhibition of colony formation [2]: 100%
- % Inhibition of colony formation [3]: 100%
- Inhibition of colony formation [4]: 100%
- Decrease of uterus weight [5, 11]: 42%
- Decrease of uterus weight [5, 12]: 50%
- % Inhibition of cell division [6]: 45%
- % Inhibition of cell division [7]: 58%
- Tumour volume (MDA-MB-231 xenograft; 1 × 50 μg daily s.c., week 2): 0.21 cm3
- Tumour volume (MDA-MB-231 xenograft; 1 × 50 μg daily s.c., week 3): 0.24 cm3
- Tumour volume as control (%) (MDA-MB-231 xenograft; 1 × 50 μg daily s.c., week 3): 66%
- Tumour volume (MDA-MB-231 xenograft; 1 × 50 μg daily s.c., week 6): 0.36 cm3
- Tumour volume as control (%) (MDA-MB-231 xenograft; 1 × 100 μg daily s.c., week 3): 65%
- Animals from 7 treated that became tumour-free (MDA-MB-231 xenograft): 1
- Tumour-free animals (MDA-MB-231 xenograft): A tumour-free animal was found
- % Inhibition of cell division [8]: 68.5%
- % Inhibition of colony formation [9]: 15%
- % Inhibition of cell division [10]: 95%

Substance: Ac-D-Trp^1,3,D-Cpa^2,{Lys[n-poly(N-vinyl pyrrolidone-co-maleic acid)-Gly-Phe-Leu-Gly-]}5, [a-Asp(DEA)]6, D-Ala10-GnRH [P-GFLG-1892]
- Inhibition % (MCF-7 xenograft; 1 × 50 μg, week 2): 30%
- Influence on the rate of tumour growth (MCF-7 xenograft): not influenced
- Inhibition of colony formation [2]: 100%
- % Inhibition of colony formation ([4]; 30 μM): 100%
- Inhibition of colony formation [4]: 100%
- Effect on the humoral immune response (B-lymphocytes): strengthened; also recorded: immunostimulatory effect
- Decrease of uterus weight [5, 11]: 39%
- Decrease of uterus weight [5, 12]: 20%
- % Inhibition of cell division [6]: 42%
- % Inhibition of cell division [7]: 45%
- Tumour volume as control (%) (MXT mouse mammary tumour): 36%
- Tumour volume (MDA-MB-231 xenograft; 1 × 75 μg daily s.c., week 6): 0.33 cm3
- Tumour-free animals (MDA-MB-231 xenograft): A tumour-free animal was found
- % Inhibition of cell division [8]: 51%
- % Inhibition of cell division [10]: 91%
- Effect on the cellular immune response (activity of T-lymphocytes against BRBC antigen) (T-lymphocytes): increased; also recorded: twofold

Substance: {Lys[n-poly(N-vinylpyrrolidone-co-maleic acid)-Gly-Phe-Leu-Gly-]}8,-GnRH-III [P-GFLG-GnRH-III]
- Tumour volume (MDA-MB-231 xenograft; 1 × 100 μg daily s.c., week 6): 0.40 cm3
- Animals from 7 treated that became tumour-free (MDA-MB-231 xenograft): 2
- Influence on the cycle of female rats (castration effect) (ovulation of female rats): not influenced

Source: patent US20060189539A1, “Novel GnRH analogues with antitumour effects and pharmaceutical compositions thereof” (priority 1994, published 2006)
